Data taken from PMC10713593, “Staphylococcus aureus functional amyloids catalyze degradation of β-lactam antibiotics” (Nature Communications, 2023).
Values joined by “and” are separate entries in the source; they are usually repeats but may differ in a detail not shown here. Equal values may be shown once.

Key:
[1] = Nitrocefin hydrolysis kinetics (absorbance of degraded nitrocefin at 480 nm; initial rates V0, Michaelis-Menten fit); assay type: biochemical; design: Initial nitrocefin-degradation reaction rate, V0: unit not given here; settings: for Initial nitrocefin-degradation reaction rate, V0: Hepes pH 7.4, average of the six runs
How it was run: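 Nitrocefin (up to 360 µM, diluted on ice in 50 mM Hepes pH 7.4) mixed with pre-incubated PSMα (510 µM solution); A480 read every 20 s for 2 h at 20 °C. V0 from first 15 min slopes, blank self-hydrolysis subtracted, fitted to Michaelis–Menten by non-linear regression; mean ± SEM, ≥5 repeats.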

[2] = assay type: physicochemical; settings: PSMα3 preformed fibrils 400 µM, titration pH 3 to 10 with NaOH 0.05M (Fig. S10)
a2-PEG17K = test system: T1, a2-PEG17K; assay: Source-data fits for PSMα variants (170 µM): initial rates of nitrocefin hydrolysis (up to 240 µM) by absorbance at 480 nm in 50 mM Hepes pH 7.4 at 20 °C.; assay type: biochemical; settings: read-out: Km [uM] (AVG, source data sheet 2c,d_titration of nitrocefin)
T1 construct: synthetic peptide, pre-assembled; modification not described beyond the name
Protocol: Nitrocefin, a β-lactam widely used as a surrogate substrate of Penicillin in β-lactamase activity assay, was used as a substrate. NC degradation was monitored for 2 h. Nitrocefin stock solution was dissolved in acetonitrile (20 mM) and then diluted with Hepes buffer (50 mM, pH 7.4) to nitrocefin concentration of 360 µM (further dilutions to lower concentrations were made with the 360 µM NC stock). All nitrocefin samples were kept on ice in cold conditions and any further dilution or mixing was performed in ice-cold conditions to avoid self-hydrolysis background reaction. […] Immediately after mixing the samples, the plate was transferred to 20̊ °C pre-cooled plate reader (Multiskan GO, Thermo Scientific, Waltham, MA) and shaken slowly for 10 s. Then, the absorbance of degraded nitrocefin was measured for 2 h at interval of 20 s at λ = 480 nm. Initial production rates (V0) were calculated by slope of the initial linear range of degraded-nitrocefin production at the first 15 min. […] The initial rate calculations were performed while also subtracting the self-degradation of the substrate, to ensure that this product absorbance is a result of PSMα presence.
The initial rates of degraded-nitrocefin production were calculated from the slopes of the first 15 min of measurement as reported above. […]

[3] = test system: Staphylococcus aureus (ATCC 25923); assay: Staphylococcus aureus sensitivity to nitrocefin in the presence of PSMα (growth curves, OD 600 nm); assay type: cell-based; settings: nitrocefin 100 µg/mL, LB, 37 °C, 16 h
Protocol: The antimicrobial activity of nitrocefin against Staphylococcus aureus (ATCC 25923) was examined in the presence or absence of pre-assembled PSMα3, while monitoring the growth of the bacterial strain. PSMα3 fibrils were prepared as described above, in aqueous solution, in concentration of 100 µM. The bacterial growth was monitored in bacterial growth curves prepared as following: 3 µL of S. aureus microbial culture (OD = 1) were added to 100 µL LB media (Difco Luria-Bertani medium, BD, France). The bacterial solution was supplemented with 100 µM of the PSMα3 solution (dissolved and preincubated in DIW) or equivalent volume of DIW as a control. Then, aqueous solution of nitrocefin was added to each sample, generating final concentration of 100 µg/mL. As control, the growth curve of S. aureus was examined without any additives. All the samples were incubated while shaking in sterile clear 96-well plates at 37 °C for 16 h, and the absorbance at 600 nm was monitored every 20 min steps by microplate reader (Varioskan Flash, Thermo Scientific, Waltham, MA). Measurements were performed at three biological replicates, each with five technical replicates. The values were plotted in the graph as mean ± SD of representative results.
Figure S15. The effects of PSMα1 and PSMα4 upon nitrocefin in physiological scenarios. […]

[4] = assay type: biochemical; settings: Aβ42 fibrils 100 µM, nitrocefin 170 µM, A480, two hours (Fig. S2)

CSCC[C@H](N)C(=O)N[C@@H](CCC(=O)O)C(=O)N[C@@H](Cc1ccccc1)C(=O)N[C@H](C(=O)N[C@@H](C)C(=O)N[C@@H](CCCCN)C(=O)N[C@@H](CC(C)C)C(=O)N[C@@H](Cc1ccccc1)C(=O)N[C@@H](CCCCN)C(=O)N[C@@H](Cc1ccccc1)C(=O)N[C@@H](Cc1ccccc1)C(=O)N[C@@H](CCCCN)C(=O)N[C@@H](CC(=O)O)C(=O)N[C@@H](CC(C)C)C(=O)N[C@@H](CC(C)C)C(=O)NCC(=O)N[C@@H](CCCCN)C(=O)N[C@@H](Cc1ccccc1)C(=O)N[C@@H](CC(C)C)C(=O)NCC(=O)N[C@@H](CC(N)=O)C(=O)N[C@@H](CC(N)=O)C(=O)O)C(C)C [PSMα3]
Initial nitrocefin-degradation reaction rate, V0 ([1]; PSMα 4.01424 uM, nitrocefin 60 µM): 0.4242
Initial nitrocefin-degradation reaction rate, V0 ([1]; PSMα 6.02136 uM, nitrocefin 60 µM): -0.2476
Initial nitrocefin-degradation reaction rate, V0 ([1]; PSMα 9.03205 uM, nitrocefin 60 µM): 0.6132
Initial nitrocefin-degradation reaction rate, V0 ([1]; PSMα 13.5481 uM, nitrocefin 60 µM): 1.028
Initial nitrocefin-degradation reaction rate, V0 ([1]; PSMα 20.3221 uM, nitrocefin 60 µM): 0.7515
Initial nitrocefin-degradation reaction rate, V0 ([1]; PSMα 30.4832 uM, nitrocefin 60 µM): -1.835
Initial nitrocefin-degradation reaction rate, V0 ([1]; PSMα 45.7247 uM, nitrocefin 60 µM): 5.684
Initial nitrocefin-degradation reaction rate, V0 ([1]; PSMα 68.5871 uM, nitrocefin 60 µM): 8.525
Initial nitrocefin-degradation reaction rate, V0 ([1]; PSMα 102.881 uM, nitrocefin 60 µM): 29.1642
Initial nitrocefin-degradation reaction rate, V0 ([1]; PSMα 154.321 uM, nitrocefin 60 µM): 32.1116
Initial nitrocefin-degradation reaction rate, V0 ([1]; PSMα 231.481 uM, nitrocefin 60 µM): 46.236
Initial nitrocefin-degradation reaction rate, V0 ([1]; PSMα 347.222 uM, nitrocefin 60 µM): 69.7594
nitrocefin degradation yield (turnover) ([1]; nitrocefin 60 µM, PSMα assemblies 350 µM, Hepes 50 mM pH 7.4, 20 °C, A480, monitored 2 h (Fig. 2a)): 75%
initial rate of nitrocefin degradation reaction (V0) ([1]; peptide 170 µM, initial nitrocefin 107 µM, Hepes 50 mM pH 7.4, 20 °C, first 15 min (Fig. 3f)): around 60 µM/h
time to degrade the entire nitrocefin reservoir ([1]; peptide 170 μM, nitrocefin 107 µM, Hepes pH 7.4 (Fig. 3e)): ~ 40 min
pKa of the amines (first value) [2]: 7.8
pKa of the amines (second value) [2]: 8.1
ATR-FTIR amide-I peak/maximum: 1660 cm⁻¹ and 1650 cm⁻¹

O=C(Cc1cccs1)N[C@@H]1C(=O)N2C(C(=O)O)=C(/C=C/c3ccc([N+](=O)[O-])cc3[N+](=O)[O-])CS[C@H]12 [nitrocefin, 3-(2,4-Dinitrostyryl)-(6R,7R)-7-(2-thienylacetamido)-ceph-3-em-4-carboxylic acid]
Km (a2-PEG17K): 2740 µM

O=C(Cc1cccs1)N[C@@H]1C(=O)N2C(C(=O)O)=C(C=Cc3ccc([N+](=O)[O-])cc3[N+](=O)[O-])CS[C@H]12 [nitrocefin, 3-(2,4-Dinitrostyryl)-(6R, 7R)−7-(2-thienylacetamido)-ceph-3-em-4-carboxylic Acid]
effect of nitrocefin on bacterial growth [3]: significantly reduced bacterial proliferation

β-amyloid fibrils: Amyloid-β sequence 1-42 fibrils, control cross-β amyloid
β-lactam (nitrocefin) degradation by control amyloid [4]: very low β-lactam degradation
